We go through one compound from article PMC9182086, “Identification of New Non-BBB Permeable Tryptophan Hydroxylase Inhibitors for Treating Obesity and Fatty Liver Disease” (Molecules, 2022).

In one data set the target is T1, TPH1 (Homo sapiens, UniProt P17752).
T1 construct: purchased BPS Bioscience
T1 sequence (P17752 1-444): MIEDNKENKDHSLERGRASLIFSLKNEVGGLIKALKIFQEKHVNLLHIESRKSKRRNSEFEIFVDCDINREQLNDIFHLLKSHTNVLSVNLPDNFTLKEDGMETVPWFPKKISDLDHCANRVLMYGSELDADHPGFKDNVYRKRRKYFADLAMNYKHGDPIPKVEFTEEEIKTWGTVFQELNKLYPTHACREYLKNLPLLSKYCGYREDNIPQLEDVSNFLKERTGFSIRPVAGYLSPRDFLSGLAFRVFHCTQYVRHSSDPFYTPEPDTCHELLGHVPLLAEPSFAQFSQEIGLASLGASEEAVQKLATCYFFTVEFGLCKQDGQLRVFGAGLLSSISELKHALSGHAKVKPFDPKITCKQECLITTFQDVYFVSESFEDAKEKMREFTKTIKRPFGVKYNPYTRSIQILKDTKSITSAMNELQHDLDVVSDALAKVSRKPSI
The data set is described as follows: TPH1 enzyme inhibition, in vitro screening (BPS Bioscience kit, fluorescence). Format: biochemical. Here is the method: Consequently, the core structure of thienopyrimidine tyrosine (derivative 6) was selected as the starting point for the synthesis, evaluating the structure-activity relationships (SAR), and optimization of TPH1 inhibitors. […]
In vitro screening was performed as described previously [PMID: 33417443]. Briefly, TPH1 enzyme activity was measured with a commercially available kit (BPS Bioscience). Compounds were dissolved in DMSO (Sigma). Then, 10 μL of the compound was dispensed into a 96-well microplate, and 40 μL of the TPH1 enzyme solution (320 ng enzyme/reaction) was added. Then, 50 μL of the TPH1 reaction solution was added, and the microplate was sealed with aluminum foil. The microplate was immediately cooled to 4 °C, gently shaken, and incubated for 4 h. After a defined time, 10 μL of the TPH1 quench solution was added. Then, the fluorescence was measured with a Flexstation3 microplate reader at 300 nm for excitation and 360 nm for emission. All experiments were performed in triplicate.

The subject of data set [1] is high-fat diet (HFD) fed mice. Also on record: method as in PMID 25864946, PMID 25485911. The note with it: cited from earlier work.
A further data set is described as follows: PAMPA-BBB permeability. To be noted: high permeation predicted > 4.0, low < 2.0, read-out: BBB Permeability Pe. Format: in vitro ADME. An excerpt: Based on the in vitro data, compound 18i was selected for […] the in vitro BBB permeability. Several in vitro methods and computational models have been used in drug discovery to predict the potential of a drug to penetrate the BBB [15, 16, 17, 18, 19, 20, 21]. The parallel artificial membrane permeation assay (PAMPA) was used to evaluate the BBB permeability of the selected compounds. The PAMPA-BBB assay is advantageous because it predicts passive penetration at the blood-brain barrier with high success, high throughput, low cost, and high reproducibility.
PAMPA was conducted with a […] PAMPA sandwich (pION, Inc., Billerica, MA, USA) consisting of a 96-well filter plate (0.45 μm PVDF membrane) and a 96-well polystyrene donor plate. Test compounds were prepared in 10 mM stock solution with DMSO and diluted to a working solution of 50 μM concentration using a phosphate buffered saline (PBS) buffer. To form lipid membranes in the acceptor plate, 5 μL GIT-0 lipid (pION, Inc., Billerica, MA, USA) was dropped and semi-dried on the bottom side of the 0.45 μm PVDF membrane. The donor plate was prepared by the addition of 200 μL of working solution. […] To acquire the peak area of range from 230 to 500 nm, absorbance scans of PBS, acceptor, donor, and working solution were carried out with an Epoch ELISA reader (BioTek Instruments Inc., Winooski, VT, USA). […]

What is called inhibition is the share of the control response that was lost under treatment. Lower therefore signals little suppression. As for `NC(Cc1ccc(Cl)cc1)C(=O)O` (stereo not shown) [pCPA, para-chlorophenylalanine, reference compound], the inhibition at 1 µM against TPH1 (1 µM compound) is < 5%. Besides, on TPH1 (100 µM compound), the inhibition at 100 µM is 25%. Moreover, in data set [1], the “Protection against diet-induced obesity (body weight gain, lipogenesis in adipose tissue)” value is on record as “protect against diet-induced obesity in vivo”. Also, in the data set “PAMPA-BBB permeability”, the Papp at 4 h, 50 µM was 1.85 ×10⁻⁶ cm/s.
